According to patent US7718703B2, “Norvaline derivative and method for preparation thereof” (Mitsubishi Tanabe Pharma Corporation, priority 2006, dated 2010):

Columns and labels:
[1] = biological target: T1, human GlyT2 (Homo sapiens, UniProt Q9Y345); assay: Glycine uptake assay (GlyT2 assay); assay type: cell-based; settings: HEK 293 cells stably transfected with human GlyT2; 14C-glycine 10 μM; room temperature 2-3 hours
T1 construct: expressed in transfected cells
T1 sequence (Q9Y345 1-797): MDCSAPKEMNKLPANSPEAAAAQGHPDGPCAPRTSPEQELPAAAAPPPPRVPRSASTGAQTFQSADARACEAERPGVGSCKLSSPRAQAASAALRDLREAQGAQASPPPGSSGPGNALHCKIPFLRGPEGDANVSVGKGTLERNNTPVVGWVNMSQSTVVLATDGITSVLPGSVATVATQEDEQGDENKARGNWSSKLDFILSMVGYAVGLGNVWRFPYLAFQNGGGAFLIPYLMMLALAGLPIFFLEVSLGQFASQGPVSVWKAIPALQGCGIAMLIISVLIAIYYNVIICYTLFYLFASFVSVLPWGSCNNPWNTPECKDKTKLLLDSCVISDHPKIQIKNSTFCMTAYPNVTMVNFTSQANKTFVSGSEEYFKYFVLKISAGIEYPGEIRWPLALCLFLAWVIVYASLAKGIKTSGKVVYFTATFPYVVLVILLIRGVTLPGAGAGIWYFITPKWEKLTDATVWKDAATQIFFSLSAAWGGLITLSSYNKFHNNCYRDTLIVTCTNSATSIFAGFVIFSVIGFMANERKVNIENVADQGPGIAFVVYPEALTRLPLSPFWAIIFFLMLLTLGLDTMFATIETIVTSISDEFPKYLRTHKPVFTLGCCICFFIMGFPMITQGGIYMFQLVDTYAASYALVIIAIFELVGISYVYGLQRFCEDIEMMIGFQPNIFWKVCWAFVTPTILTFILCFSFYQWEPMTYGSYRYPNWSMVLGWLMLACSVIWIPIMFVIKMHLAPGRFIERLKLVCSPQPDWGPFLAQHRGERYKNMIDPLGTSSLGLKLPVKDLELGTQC
Method: Experiment 1 Glycine uptake assay (GlyT2 and GlyT1 assay)
Inhibitory activity on GlyT2 and GlyT1 was examined by glycine uptake assays using cells expressing GlyT2 or GlyT1, as described in the literatures, Caulfield et al. (J. Med. Chem., 2001, 44, 2679-2682), Williams et al. (Anal. Biochem., 2003, 321, 31-37, etc.), and/or Morrow et al. (FEBS Letters, 1998, 439: 334-340).
Briefly, the assays were performed as follows.
HEK 293 cells stably transfected with either human GlyT2 or human GlyT1b were used. The cells were grown in 96-well Cytostar-T™ scintillating microplates (20,000-40,000 cells/well) overnight before removal of culture medium and addition of HEPES buffered saline containing glycine (10 μM) labeled with ^14C and varying concentrations of test compounds.
Plates were incubated at room temperature for 2-3 hours, and then, the plates were counted in a plate counter.
Data were analyzed by the sigmoid dose-response curve fitting to produce IC50 (the concentration of test compound producing 50% inhibition) values.

| Structure (SMILES) | melting point [°C] | IC50 [1] [nM] |
| --- | --- | --- |
| CCCCCCOc1ccc(C(=O)N[C@@H](CCC)C(=O)NCCN(C)C)cc1 [Example 1.001, N-[(1S)-1-[[[2-(dimethylamino)ethyl]amino]carbonyl]butyl]-4-(hexyloxy)benzamide] | 103 to 104 | – |
| CCC[C@H](NC(=O)c1cc(OC)c(OCc2ccccc2)c(OC)c1)C(=O)NCC1(N(C)C)CCCC1 [Example 1.026] | – | < 10 |
